Test results as given in PubChem BioAssay (NCI).
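Step 1: Grow cells in 96-well plates. Step 2: Expose to compound for 48 hours at 5 concentrations. Step 3: Interpolate endpoints linearly; if unreached, use highest concentration. GI50 is the concentration that inhibits growth by half. Definition used: TGI = concentration required for complete inhibition of growth.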

Columns and labels:
Assay in all cases: NCI anticancer screen, dose series, 48 h
SW-620 colon = test system: SW-620 colon
TK-10 renal = test system: TK-10 renal
KM12 colon = test system: KM12 colon
UO-31 renal = test system: UO-31 renal
OVCAR-4 ovarian = test system: OVCAR-4 ovarian
SK-OV-3 ovarian = test system: SK-OV-3 ovarian
SNB-75 CNS = test system: SNB-75 CNS
IGROV1 ovarian = test system: IGROV1 ovarian
NCI-H226 lung = test system: NCI-H226 lung
MCF7 breast = test system: MCF7 breast

Row | Structure (SMILES) | TGI (SW-620 colon) [µM] | TGI (TK-10 renal) [µM] | TGI (KM12 colon) [µM] | TGI (UO-31 renal) [µM] | TGI (OVCAR-4 ovarian) [µM] | TGI (SK-OV-3 ovarian) [µM] | TGI (SNB-75 CNS) [µM] | TGI (IGROV1 ovarian) [µM] | TGI (NCI-H226 lung) [µM] | GI50 (MCF7 breast) [µM] | TGI (MCF7 breast) [µM] | GI50 (SW-620 colon) [µM] | GI50 (TK-10 renal) [µM] | GI50 (KM12 colon) [µM] | GI50 (UO-31 renal) [µM] | GI50 (SK-OV-3 ovarian) [µM] | GI50 (SNB-75 CNS) [µM] | GI50 (IGROV1 ovarian) [µM] | GI50 (NCI-H226 lung) [µM]
1 | CC1=C(C(=O)Nc2cc(=O)n(C)c(=O)n2C)C(c2cccc([N+](=O)[O-])c2)C(C(=O)Nc2cc(=O)n(C)c(=O)n2C)=C(C)N1 | > 100 | > 100 | > 100 | > 100 | > 100 | > 100 | 99.5 | > 100 | > 100 | – | – | – | – | – | – | – | – | – | –
2 | CCOC(=O)N1c2c(ccn2C)-c2ccn(C)c2N1C(=O)OCC | 28.6 | – | 57.3 | 35.4 | – | 77.3 | 33.7 | 52.4 | 37.5 | – | – | – | – | – | – | – | – | – | –
3 | O=C(O)NC(c1ccccc1)C(NC(=O)c1ccccc1)c1ccccc1 (configuration not stated) | > 100 | > 100 | > 100 | – | > 100 | – | > 100 | > 100 | – | – | – | – | – | – | – | – | – | – | –
4 | COc1cc(OC)c(SSCCCCS(=O)O)c(OC)c1 | 28.4 | 42.9 | 29.4 | 40.6 | > 100 | 38.6 | 25.4 | 57.8 | – | – | – | – | – | – | – | – | – | – | –
5 | C/C=C1\C=C(OC)CN(CCc2c[nH]c3ccccc23)C1 | > 100 | > 100 | > 100 | > 100 | > 100 | – | > 100 | > 100 | > 100 | – | – | – | – | – | – | – | – | – | –
6 | CC(=O)OC1CCn2nnc(CO)c21 (configuration not stated) | > 100 | > 100 | > 100 | > 100 | > 100 | > 100 | > 100 | > 100 | > 100 | – | – | – | – | – | – | – | – | – | –
7 | CCOC(=O)NC1C2CC(=O)OC(O2)C1OC(C)=O (configuration not stated) | > 100 | > 100 | > 100 | > 100 | > 100 | > 100 | > 100 | > 100 | – | > 100 | > 100 | – | – | – | – | – | – | – | –
8 | NC1CCC(Nc2nc(NCc3ccc(-c4ccccc4O)nc3)c3ncn(C4CCCC4)c3n2)CC1 (configuration not stated) | 1.23 | 1.33 | 0.429 | 0.545 | – | 0.431 | 0.0356 | 2.04 | 0.404 | – | – | < 0.01 | 0.0306 | 0.018 | 0.0759 | 0.036 | 0.0121 | 0.0345 | 0.0486
9 | CC(=O)OC[C@]1(C)CCCC2(C)C1CCC1C=C(C)[C@H]3CCC12C3 (some centres not stated) | > 100 | > 100 | > 100 | > 100 | > 100 | > 100 | 93.2 | > 100 | > 100 | – | – | – | – | – | – | – | – | – | –
10 | O=C1Cc2c([nH]c3ccccc23)-c2ccccc2N1 | 66.7 | > 100 | 45.2 | > 100 | > 100 | > 100 | > 100 | 70.8 | > 100 | – | – | – | – | – | – | – | – | – | –
11 | CCN(CC)CCCNC(=O)C1COc2cc(-c3cc(=O)c4ccccc4o3)ccc2O1 (configuration not stated) | > 100 | > 100 | – | > 100 | > 100 | > 100 | > 100 | > 100 | > 100 | – | – | – | – | – | – | – | – | – | –
12 | Cc1nc(C(N)=S)sc1C(=O)CC(=O)C(=O)Nc1ccccc1[N+](=O)[O-] | > 100 | > 100 | > 100 | > 100 | > 100 | > 100 | > 100 | > 100 | – | – | – | – | – | – | – | – | – | – | –
13 | CCOC(=O)/C(=C\c1ccc(N(CCC#N)CCC#N)cc1)NC(=O)c1cc([N+](=O)[O-])ccc1Cl | > 100 | > 100 | > 100 | > 100 | > 100 | > 100 | > 100 | > 100 | > 100 | – | – | – | – | – | – | – | – | – | –
14 | CN1CC(=O)N(C)c2ncn(Cc3ccccc3)c2C1=O | > 100 | > 100 | > 100 | > 100 | > 100 | > 100 | > 100 | > 100 | – | – | – | – | – | – | – | – | – | – | –
15 | COc1ccccc1C(O)(c1ccccc1)C(O)(c1ccccc1)c1ccccc1OC (configuration not stated) | > 100 | > 100 | > 100 | > 100 | > 100 | > 31.6 | > 100 | > 100 | > 100 | – | – | – | – | – | – | – | – | – | –
16 | CC(=O)NC1=C(NC(C)(C)C)C(=O)c2ccccc2C1=O | 30.1 | 33.5 | 92.9 | 32.9 | 36.6 | > 100 | 26.5 | 70.4 | 27.6 | – | – | – | – | – | – | – | – | – | –
